In US4652573A, “Calcium antagonist N-hetero ester 1,4-dihydropyridines” (Nelson Research & Development Co., priority 1985, dated 1987):

Experiments:
[1] = tested on: spontaneous hypertensive rats (SHR); assay: Hypotensive Activity: systolic arterial blood pressure, indirect tail cuff method, oral administration; format: in vivo, rat; details: oral 10 m mol/Kg in polyethylene glycol, positive = fall; for Mean Change in Blood Pressure (Pressure before Administration minus pressure after Administration mm Hg) 10 min: 10 min after administration; for Mean Change in Blood Pressure (Pressure before Administration minus pressure after Administration mm Hg) 20 min: 20 min after administration; for Mean Change in Blood Pressure (Pressure before Administration minus pressure after Administration mm Hg) 30 min: 30 min after administration; for Mean Change in Blood Pressure (Pressure before Administration minus pressure after Administration mm Hg) 60 min: 60 min after administration; for Mean Change in Blood Pressure (Pressure before Administration minus pressure after Administration mm Hg) 90 min: 90 min after administration; for Mean Change in Blood Pressure (Pressure before Administration minus pressure after Administration mm Hg) 120 min: 120 min after administration
Protocol: Systolic arterial blood pressure was measured with the indirect tail cuff method in spontaneous hypertensive rats (SHR). The change in baseline pressure (170-210 mm Hg) was recorded at various time points following oral administration of 10 m mol/Kg of the test compound in polyethylene glycol.

[2] = target: T1, DHP Site of the Calcium Channel (Oryctolagus cuniculus, UniProt P07293); assay: Binding Assay for Drugs Acting at the DHP Site of the Calcium Channel (3H-nitrendipine displacement, washed rabbit skeletal muscle membranes); details: read-out: KI (moles)
T1 construct: Washed rabbit skeletal muscle membranes; from tissue; host or cells: rabbit skeletal muscle, washed membranes (fraction 2-8×)
Protocol: A. Binding Assay for Drugs Acting at the DHP Site of the Calcium Channel.
The assay was carried out as described by Fairhurst et al., Life Sciences, 32, 1331 (1983). Washed rabbit skeletal muscle membranes (fraction 2-8×) were incubated for 30 minutes at 25° C. in 2 ml final volume of medium containing 12.5 mM HEPES buffer pH 7.4 and 0.5×10^-9 M ^3 H-nitrendipine having a specific activity of approximately 17 Ci/m mol.
The incubation tubes were rapidly chilled in ice and the contents filtered through Whatman GF/B filters on a Millipore manifold, and the filters washed with 2×10 ml ice-cold HEPES buffer. The filters were placed in scintillation counting vials with 8 ml of Cytoscint cocktail, disrupted mechanically by shaking for 30 minutes and counted.
Drugs which interact at the DHP site will reduce this specific binding in a dose-dependent manner. The assays for the compounds of this invention were made with logarithmically spaced concentrations, the data were plotted on a probit-concentration plot, and the IC50 read off. The KI of the drug was calculated by standard techniques.

T1 sequence (P07293 whole entry): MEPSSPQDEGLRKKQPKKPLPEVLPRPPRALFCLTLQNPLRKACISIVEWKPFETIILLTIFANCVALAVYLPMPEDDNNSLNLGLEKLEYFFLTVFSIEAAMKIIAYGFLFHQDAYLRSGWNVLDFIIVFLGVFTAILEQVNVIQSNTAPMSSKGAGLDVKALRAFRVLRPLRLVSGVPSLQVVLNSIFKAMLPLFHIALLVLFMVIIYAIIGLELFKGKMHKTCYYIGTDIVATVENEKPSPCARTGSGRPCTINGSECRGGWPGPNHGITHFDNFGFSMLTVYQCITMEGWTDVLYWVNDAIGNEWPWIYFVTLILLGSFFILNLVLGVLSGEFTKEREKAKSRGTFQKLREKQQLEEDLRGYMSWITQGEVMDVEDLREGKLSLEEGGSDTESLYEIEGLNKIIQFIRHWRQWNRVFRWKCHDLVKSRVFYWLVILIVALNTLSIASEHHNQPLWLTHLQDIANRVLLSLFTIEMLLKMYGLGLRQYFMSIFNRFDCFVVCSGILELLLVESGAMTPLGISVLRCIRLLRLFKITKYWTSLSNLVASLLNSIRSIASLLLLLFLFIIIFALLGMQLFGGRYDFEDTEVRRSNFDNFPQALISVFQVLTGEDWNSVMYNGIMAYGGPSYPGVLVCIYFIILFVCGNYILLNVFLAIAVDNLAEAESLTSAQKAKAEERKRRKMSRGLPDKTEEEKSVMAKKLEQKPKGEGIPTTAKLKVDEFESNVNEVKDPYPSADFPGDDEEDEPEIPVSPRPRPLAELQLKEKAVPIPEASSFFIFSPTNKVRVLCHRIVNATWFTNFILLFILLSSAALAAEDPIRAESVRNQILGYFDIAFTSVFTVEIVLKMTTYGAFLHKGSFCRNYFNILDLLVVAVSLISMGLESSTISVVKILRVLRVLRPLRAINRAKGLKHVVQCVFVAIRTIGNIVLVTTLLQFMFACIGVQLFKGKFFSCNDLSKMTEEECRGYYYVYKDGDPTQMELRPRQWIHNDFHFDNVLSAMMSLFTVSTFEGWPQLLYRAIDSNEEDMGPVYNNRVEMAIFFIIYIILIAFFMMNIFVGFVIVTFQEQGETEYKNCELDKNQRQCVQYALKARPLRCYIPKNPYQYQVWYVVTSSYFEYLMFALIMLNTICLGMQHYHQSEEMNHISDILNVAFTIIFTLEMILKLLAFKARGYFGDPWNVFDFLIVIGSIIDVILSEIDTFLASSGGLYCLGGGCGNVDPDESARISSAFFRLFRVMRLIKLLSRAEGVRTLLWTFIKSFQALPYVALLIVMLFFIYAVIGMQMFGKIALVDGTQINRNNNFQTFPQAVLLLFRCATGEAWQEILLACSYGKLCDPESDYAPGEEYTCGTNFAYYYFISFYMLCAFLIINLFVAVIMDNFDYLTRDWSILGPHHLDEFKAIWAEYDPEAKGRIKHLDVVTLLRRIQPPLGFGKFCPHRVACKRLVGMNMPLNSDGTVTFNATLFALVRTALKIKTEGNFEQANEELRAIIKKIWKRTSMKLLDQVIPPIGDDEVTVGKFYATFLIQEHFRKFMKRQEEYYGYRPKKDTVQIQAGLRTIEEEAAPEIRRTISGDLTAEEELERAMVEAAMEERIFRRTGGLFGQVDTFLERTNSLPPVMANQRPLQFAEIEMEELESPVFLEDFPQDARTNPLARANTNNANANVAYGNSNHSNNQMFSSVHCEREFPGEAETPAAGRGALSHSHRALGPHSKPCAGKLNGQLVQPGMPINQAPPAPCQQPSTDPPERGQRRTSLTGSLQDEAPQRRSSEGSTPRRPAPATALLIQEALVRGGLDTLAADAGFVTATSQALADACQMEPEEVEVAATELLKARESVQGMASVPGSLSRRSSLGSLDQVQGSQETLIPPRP

| SMILES | Mean Change in Blood Pressure (Pressure before Administration minus pressure after Administration mm Hg) 10 min [1] [mm Hg] | Mean Change in Blood Pressure (Pressure before Administration minus pressure after Administration mm Hg) 20 min [1] [mm Hg] | Mean Change in Blood Pressure (Pressure before Administration minus pressure after Administration mm Hg) 30 min [1] [mm Hg] | Mean Change in Blood Pressure (Pressure before Administration minus pressure after Administration mm Hg) 60 min [1] [mm Hg] | Mean Change in Blood Pressure (Pressure before Administration minus pressure after Administration mm Hg) 90 min [1] [mm Hg] | Mean Change in Blood Pressure (Pressure before Administration minus pressure after Administration mm Hg) 120 min [1] [mm Hg] | Ki [2] [nM] |
| --- | --- | --- | --- | --- | --- | --- | --- |
| COC(=O)C1=C(C)NC(C)=C(C(=O)OCCN2C(=O)c3ccccc3C2=O)C1c1cccc(C)c1 (stereo not drawn) [Example 1, 2,6-dimethyl-3-(2-phthalimidocarbethoxy)-4-(3-methylphenyl)-5-carbomethoxy-1,4-dihydropyridine] | 17 | 10 | 4 | -2 | 5 | -4 | 19.7 |
| COC(=O)C1=C(C)NC(C)=C(C(=O)OCCN2C(=O)c3ccccc3C2=O)C1c1cccc([N+](=O)[O-])c1 (stereo not drawn) [Example 2, 2,6-dimethyl-3-(2-phthalimidocarbethoxy)-4-(3-nitrophenyl)-5-carbomethoxy-1,4-dihydropyridine] | 9 | 10 | 10 | 6 | 0 | 0 | 0.7 |
| COC(=O)C1=C(C)NC(C)=C(C(=O)OCCN2C(=O)c3ccccc3C2=O)C1c1cccc(C(F)(F)F)c1 (stereo not drawn) [Example 3, 2-6-dimethyl-3-(2-phthalimidocarbethoxy)-4-(3-trifluoromethylphenyl)-5-carbomethoxy-1,4-dihydropyridine] |  |  |  |  |  |  | 48 |
| CC1=C(C(=O)OCCN2C(=O)c3ccccc3C2=O)C(c2cccc([N+](=O)[O-])c2)C(C(=O)OCCN2C(=O)c3ccccc3C2=O)=C(C)N1 [Example 4, 2,6-dimethyl-3,5-di(2-phthalimidocarbethoxy)-4-(3-nitrophenyl)-1,4-dihydropyridine] | 9 | 8 | 14 | 11 | 14 | 10 | 2.5 |
| COC(=O)C1=C(C)NC(C)=C(C(=O)OCCCN2C(=O)c3ccccc3C2=O)C1c1cccc([N+](=O)[O-])c1 (stereo not drawn) [Example 5] | -5 | -14 | -10 | -6 | -6 | -5 | 4.8 |
| COC(=O)C1=C(C)NC(C)=C(C(=O)OCCCCCCN2C(=O)c3ccccc3C2=O)C1c1cccc([N+](=O)[O-])c1 (stereo not drawn) [Example 6, 2,6-Dimethyl-3-(6-phthalimidocarbohexoxy)-4-(3-nitrophenyl)-5-carbomethoxy-1,4-dihydropyridine] | 18 | 10 | 12 | 14 | 2 | 0 | 1.9 |
| COC(=O)C1=C(C)NC(C)=C(C(=O)OCCN2Cc3ccccc3C2=O)C1c1cccc([N+](=O)[O-])c1 (stereo not drawn) [Example 7, 2,6-Dimethyl-3-(2-phthalimidinocarbethoxy)-4-(3-nitrophenyl)-5-carbomethoxy-1,4-dihydropyridine] | 14 | 19 | 10 | 10 | 20 | 19 | 20 |
| COC(=O)C1=C(C)NC(C)=C(C(=O)OCCN2Cc3ccccc3C2)C1c1cccc([N+](=O)[O-])c1 (stereo not drawn) [Example 8, 2,6-Dimethyl-3-(2-isoindolinylcarbethoxy)-4-(3-nitrophenyl)-5-carbomethoxy-1,4-dihydropyridine] | 36 | 30 | 32 | 16 | 4 | 2 | 3.5 |
| COC(=O)C1=C(C)NC(C)=C(C(=O)OCCN2C(=O)CCC2=O)C1c1cccc([N+](=O)[O-])c1 (stereo not drawn) [Example 9, 2,6-Dimethyl-3-(2-succimimidocarbethoxy)-4-(3-nitrophenyl)-5-carbomethoxy-1,4-dihydropyridine] | 36 | 10 | 5 | 3 | 19 | 11 | 150 |
| COC(=O)C1=C(C)NC(C)=C(C(=O)OCCN2CCCC2=O)C1c1cccc([N+](=O)[O-])c1 (stereo not drawn) [Example 10, 2,6-Dimethyl-3-[2-(2-oxopyrrolidino)carbethoxy]-4-(3-nitrophenyl)-5-carbomethoxy-1,4-dihydropyridine] | -17 | -5 | 11 | 7 | 6 | 7 | 270 |
| CC1=C(C(=O)OCCn2c(C)ccc2C)C(c2cccc([N+](=O)[O-])c2)C(C(=O)OCCn2c(C)ccc2C)=C(C)N1 [Example 12, 2,6-Dimethyl-3,5-(2,5-dimethylpyrrolylcarbethoxy)-4-(3-nitrophenyl)-1,4-dihydropyridine] |  |  |  |  |  |  | 2.5 |
| COC(=O)C1=C(C)NC(C)=C(C(=O)OCCN(C)Cc2ccccc2)C1c1cccc([N+](=O)[O-])c1 (stereo not drawn) [Nicardipine, nicardipine, reference compound] |  |  |  |  |  |  | 1.1 |
| COC(=O)C1=C(C)NC(C)=C(C(=O)OC)C1c1ccccc1[N+](=O)[O-] [Nifedipine, nifedipine, reference compound] | 37 | 36 | 20 | 15 | 4 | 4 |  |
